Assay results: patent publication US20250151722A1 (priority 2022, published 2025)
Several values for one entry are separate records, joined by “and”; a condition that tells them apart may be missing. Identical values can stand only once. Entries after “also recorded” stand apart in the source; their conditions may differ. Like-named read-outs stand apart in the source and are kept apart here.

Tests used:
[1] = test system: A. flavus IFM47798 strain; assay: Fungal growth (dry fungal weight) in liquid culture, Test Example 1; type: cell-based, Aspergillus flavus
[2] = test system: A. parasiticus NRRL2999 strain; type: cell-based, Aspergillus parasiticus
[3] = test system: A. flavus MAFF111229 strain
[4] = test system: A. parasiticus NRRL2999 strain
[5] = test system: A. flavus IFM47798 strain; type: cell-based, Aspergillus flavus; conditions: for Total AF Relative Value (%): 48 h, 28° C., untreated control = 100, mean ± SD, n = 4
[6] = test system: A. flavus MAFF111229 strain; type: cell-based, Aspergillus flavus; conditions: untreated control = 100, mean ± SD, n = 4
[7] = test system: A. flavus MAFF111229 strain; type: cell-based, Aspergillus flavus
[8] = alcohol 0.3 v/v %, 48 h, 28° C., untreated control = 100, mean ± SD, n = 4
[9] = alcohol 0.6 v/v %, 48 h, 28° C., untreated control = 100, mean ± SD, n = 4
[10] = alcohol 1 v/v %, 48 h, 28° C., untreated control = 100, mean ± SD, n = 4
[11] = alcohol 2 v/v %, 48 h, 28° C., untreated control = 100, mean ± SD, n = 4
[12] = alcohol 4 v/v %, 48 h, 28° C., untreated control = 100, mean ± SD, n = 4

With `CCCO` [1-Propanol] as the compound, how does the “Fungal Weight Relative Value (%)” value [1] read?
The value was 102.9 ± 12.0% and 118.1 ± 5.4%.

What about the “Total AF Relative Value (%)” value [2] of the same compound?
Its value is 58.7 ± 9.5 % and 47.5 ± 6.5 %.

And the “Fungal Weight Relative Value (%)” value [3]?
The value was 104.5 ± 6.5% and 103.9 ± 8.8%.

And the “Fungal Weight Relative Value (%)” value [4]?
Its value is 87.4 ± 1.8% and 86.4 ± 2.8%.

Which “amount of aflatoxins produced” value [5] does the source give for `CC(C)O` [2-Propanol] here?
Its value is “increase the amount of aflatoxins produced; also recorded: same tendencies as in the case of ethanol”.

And the “Fungal Weight Relative Value (%)” value [1, 8]?
Its value is 126.2 ± 6.4%.

And the “Fungal Weight Relative Value (%)” value [1, 9]?
Its value is 128.0 ± 11.6%.

And the “Fungal Weight Relative Value (%)” value [1, 10]?
Its value is 103.7 ± 7.7%.

What about the “Fungal Weight Relative Value (%)” value [1, 11] of the same compound?
Its value is 94.4 ± 8.3%.

And the “Fungal Weight Relative Value (%)” value [1, 12]?
The value was 0.0 ± 0.0%.

Which results are given for `CCO` [Ethanol]?
aflatoxin production [5]: the aflatoxin production was accordingly inhibited; amount of aflatoxins produced [5]: increase the amount of aflatoxins produced; also recorded: conversely increased; Total AF Relative Value (%) ([5]; alcohol 0.3 v/v %): 197.1 ± 25.9 %; Total AF Relative Value (%) ([5]; alcohol 0.6 v/v %): 244.5 ± 13.2 %; Total AF Relative Value (%) ([5]; alcohol 1 v/v %): 222.4 ± 20.9 %; Total AF Relative Value (%) ([5]; alcohol 2 v/v %): 24.3 ± 10.5 %; Total AF Relative Value (%) ([5]; alcohol 4 v/v %): 0.0 ± 0.0 %; growth of A. flavus [1]: not inhibited; growth of A. flavus ([1]; concentration of 4 v/v % or higher): the growth of A. flavus was inhibited

For `CO` [Methanol], which “Total AF Relative Value (%)” value ([5]; alcohol 0.3 v/v %) is on record?
The value was 70.6 ± 12.1 %.

What about the “Total AF Relative Value (%)” value ([5]; alcohol 0.6 v/v %) of the same compound?
Its value is 63.4 ± 12.7 %.

And the “Total AF Relative Value (%)” value ([5]; alcohol 1 v/v %)?
Its value is 0.0 ± 0.0 %.

And the “Total AF Relative Value (%)” value ([5]; alcohol 2 v/v %)?
Its value is 0.0 ± 0.0 %.

And the “Total AF Relative Value (%)” value ([5]; alcohol 4 v/v %)?
Its value is 0.0 ± 0.0 %.

And the “Fungal Weight Relative Value (%)” value [1, 8]?
The value was 103.7 ± 3.5%.

And the “Fungal Weight Relative Value (%)” value [1, 9]?
The value was 110.1 ± 6.7%.

What about the “Fungal Weight Relative Value (%)” value [1, 10] of the same compound?
The value was 128.4 ± 3.0%.

What about the “Fungal Weight Relative Value (%)” value [1, 11] of the same compound?
The value was 145.9 ± 11.4%.

What about the “Fungal Weight Relative Value (%)” value [1, 12] of the same compound?
Its value is 103.7 ± 3.5%.

And the “Total AF Relative Value (%)” value ([6]; alcohol 0.3 v/v %)?
Its value is 108.5 ± 5.8%.

And the “Total AF Relative Value (%)” value ([6]; alcohol 0.6 v/v %)?
The value was 102.3 ± 5.0%.

And the “Total AF Relative Value (%)” value ([6]; alcohol 1 v/v %)?
The value was 13.8 ± 0.8 %.

And the “Total AF Relative Value (%)” value ([6]; alcohol 2 v/v %)?
Its value is 0.0 ± 0.0 %.

And the “Total AF Relative Value (%)” value ([6]; alcohol 4 v/v %)?
Its value is 0.0 ± 0.0 %.

What about the “Total AF Relative Value (%)” value ([2]; alcohol 0.3 v/v %, untreated control = 100, mean ± SD, n = 4) of the same compound?
The value was 86.3 ± 3.6 %.

And the “Total AF Relative Value (%)” value ([2]; alcohol 0.6 v/v %, untreated control = 100, mean ± SD, n = 4)?
The value was 72.3 ± 1.9 %.

What about the “Total AF Relative Value (%)” value ([2]; alcohol 1 v/v %, untreated control = 100, mean ± SD, n = 4) of the same compound?
Its value is 31.1 ± 1.4 %.

What about the “Total AF Relative Value (%)” value ([2]; alcohol 2 v/v %, untreated control = 100, mean ± SD, n = 4) of the same compound?
Its value is 10.3 ± 1.3 %.

What about the “Total AF Relative Value (%)” value ([2]; alcohol 4 v/v %, untreated control = 100, mean ± SD, n = 4) of the same compound?
Its value is 3.4 ± 0.8 %.

And the “Total AF Relative Value (%)” value ([7]; corn kernels sprayed with alcohol 20 μL per 1 g of kernels, 28° C., one week, positive control = 100, mean ± SD, n = 3)?
Its value is 1.0 ± 1.3 %.

And the “Fungal Weight Relative Value (%)” value [3]?
Its value is 123.6 ± 6.8% and 123.6 ± 10.4% and 112.8 ± 10.4% and 98.0 ± 4.6% and 101.4 ± 3.5%.

What about the “Fungal Weight Relative Value (%)” value [4] of the same compound?
The value was 93.3 ± 11.2% and 92.0 ± 6.9% and 100.0 ± 8.5% and 102.1 ± 1.6% and 102.9 ± 3.7%.

Which “amount of aflatoxins produced” value [5] does the source give for `CC(C)(C)O` [2-Methyl-2-Propanol] here?
The value was “increase the amount of aflatoxins produced; also recorded: same tendencies as in the case of ethanol”.

And the “Fungal Weight Relative Value (%)” value [1, 8]?
The value was 104.8 ± 7.9%.

What about the “Fungal Weight Relative Value (%)” value [1, 9] of the same compound?
The value was 101.0 ± 4.8%.

And the “Fungal Weight Relative Value (%)” value [1, 10]?
The value was 51.9 ± 15.5%.

And the “Fungal Weight Relative Value (%)” value [1, 11]?
Its value is 0.0 ± 0.0%.

What about the “Fungal Weight Relative Value (%)” value [1, 12] of the same compound?
Its value is 0.0 ± 0.0%.

Which “Fungal Weight Relative Value (%)” value [1] does the source give for `CCC(C)O` (stereo not drawn) [2-Butanol] here?
Its value is 66.1 ± 5.4% and 70.2 ± 4.2%.

What about the “Total AF Relative Value (%)” value [7] of the same compound?
The value was 0.0 ± 0.0 %.

What about the “Fungal Weight Relative Value (%)” value [3] of the same compound?
The value was 56.2 ± 7.3% and 48.9 ± 8.7%.
